From US8728439B2, “System and method for indirectly measuring calcium ion efflux” (Celtrast LLC, priority 2008, dated 2014)

What was measured:
NCX = target: T1, NCX (Mus musculus, UniProt P70414); test: MEMRI T1-mapping of LV Wall ΔR1 washout (Mn2+ efflux) after MnCl2 infusion, with or without NCX inhibitor; type: in vivo, C57Bl/6 mice; details: for average LV Wall ΔR1: 4.9-5.9 hours post-MnCl2 infusion; for ΔR1,0 (extrapolated ΔR1 at the time of MnCl2 infusion): fit t>=1 hour
T1 construct: from tissue; host or cells: myocardium (left ventricular free wall) of living C57Bl/6 mice

[1] = Absolute Mn content in heart tissue by ICP-MS; type: in vivo, C57Bl/6 mice; details: 50 mg/kg SEA0400; approximately 6 hours post-MnCl2
Procedure: As previously stated, all mice were anesthetized during the experimental procedures: contrast agent infusion, drug administration, and imaging sessions. The mice were allowed to recover between procedures so as to […] the time each mouse was under anesthesia to 2.5 hours, which was then followed by a recovery period of at least 2.5 hours. This protocol minimized any physiological effects caused by the anesthesia; imaging time points selected for each mouse followed these guidelines. In addition, efforts were made to alter the time interval between successive data points so as not to bias the results with potential anesthesia effects. […] A subgroup of randomly selected animals (n=16) was sacrificed immediately after imaging to measure absolute Mn content in heart tissue (n=14) and blood samples (n=6) by inductively coupled plasma-mass spectrometry (ICP-MS) analysis ([…] Ltd., North Vancouver, BC, Canada). The samples were harvested approximately one hour after the initiation of the final T1-map. This time delay was due to the length of time required to acquire the T1-map, and the time required to harvest the samples, and remained constant for all of the samples. […] No statistically significant differences between the groups were found following linear least-square fitting to the data. […]

[2] = Heart rate post-MnCl2 infusion

average LV Wall ΔR1 (NCX; 20 mg/kg SEA0400): 1.72 ± 0.24 s⁻¹
ΔR1,0 (extrapolated ΔR1 at the time of MnCl2 infusion) (NCX; 20 mg/kg SEA0400 i.p. one hour post-MnCl2): 4.8 ± 0.2 s⁻¹
average LV Wall ΔR1 (NCX; 50 mg/kg SEA0400): 2.46 ± 0.29 s⁻¹
ΔR1,0 (extrapolated ΔR1 at the time of MnCl2 infusion) (NCX; 50 mg/kg SEA0400 i.p. one hour post-MnCl2): 4.3 ± 0.4 s⁻¹
Compound: CCOc1ccc(Oc2ccc(OCc3cc(F)ccc3F)cc2)c(N)c1 [SEA0400]
half-life versus control group (extra sum-of-squares F test) (NCX; 20 mg/kg SEA0400, p=0.54): not statistically different from the control group
half-life versus control group (extra sum-of-squares F test) (NCX; 50 mg/kg SEA0400, p=0.006): significantly different from the control group
absolute cardiac Mn concentration [1]: 27.1 µg/g
average post-MnCl2 infusion heart rate ([2]; 20 mg/kg SEA0400): 449±30 bpm
average post-MnCl2 infusion heart rate ([2]; 50 mg/kg SEA0400): 443±28 bpm
difference in heart rate between the experimental groups ([2]; control, 20 mg/kg and 50 mg/kg SEA0400, p=0.08): No significant differences in HR
